This is an account of results in the METLIN SMRT retention time set (Domingo-Almenara et al. 2019).

A short description of the series: gradient 5% acetonitrile 3 min, to 50% in 2 min, to 85% in 15 min, held 3 min, 100 µL/min. To be noted: column: Zorbax Extend-C18 2.1 x 50 mm; eluents: water / acetonitrile, 0.1% formic acid. In a few lines: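 A Zorbax Extend-C18 column (2.1 × 50 mm, 1.8 μm) run at 100 μL/min with water and acetonitrile, both containing 0.1% formic acid, separated mixtures of ~100 pure standards. The HPLC was coupled to a quadrupole time-of-flight mass spectrometer operated in positive and negative ionization mode, with dead and dwell volumes of 40 μL and 900 μL. Each retention time was taken from a computationally picked adduct peak that was then manually inspected.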
`O=C(CN1CCN(Cc2ccccc2)C1=O)NC1CCN(Cc2ccccc2)CC1` had an RP-LC retention time of 599 s.
For the compound `CCOC(=O)Nc1csnn1`, the RP-LC retention time amounted to 711 s.
The same measure for `COc1ccc(NC(=O)N2CCN(C3=CC4=NC(C)CN4C=N3)CC2)c(C)c1` (configuration not stated): 649 s.
The same measure for `O=C(NCC(F)(F)F)C1CCN(C(=O)COc2ccccc2)CC1`: 676 s.
On to `COc1ccc(CCC(=O)N2CCCC2c2cc(C)on2)cc1` (configuration not stated), for which the RP-LC retention time is 775 s.
`CCOC(=O)c1csc(NC(=O)Nc2cccc(Cl)c2)n1` showed an RP-LC retention time of 867 s.
Consider `CCOC(=O)c1cc(C(=O)OCC)n(CC(=O)c2ccccc2)n1`, for which the RP-LC retention time was determined as 973 s.
The figure for `Cc1ccc(S(=O)(=O)c2cnc(N3CCN(c4cccc(Cl)c4)CC3)nc2N)cc1C` is 1260 s.
As to `COC(=O)c1scc(-c2ccc(C)cc2)c1S(=O)(=O)N1CCC(C(N)=O)CC1`, the RP-LC retention time amounted to 798 s.
The same measure for `O=C(O)C(Cc1ccccc1)NS(=O)(=O)c1ccc(Cl)c(C(F)(F)F)c1` (configuration not stated): 887 s.
The same measure for `CSc1ccc(-c2nc3ccc(C)cn3c2Nc2ccc3c(c2)OCCO3)cc1`: 716 s; for `CCCn1ccc2sc(C)c(C(=O)N(CC)Cc3ccccc3)c2c1=O`: 884 s.
The same measure for `CC1CCc2onc(C(=O)N3CCN(c4ccccn4)CC3)c2C1` (configuration not stated): 650 s; for `COc1ccc(Br)cc1CNC(=O)Cn1cnc2onc(C)c2c1=O`: 815 s.
Turning to `CCCCOc1ccc(NC(=O)c2oc3cc(C)ccc3c2C)c2cccnc12`, the RP-LC retention time is 946 s.
The same measure for `CCc1ccccc1NC(=O)C1CCN(S(C)(=O)=O)c2ccccc2O1` (configuration not stated): 912 s; for `Cn1c(SCc2ccc([N+](=O)[O-])cc2)nnc1-c1cccnc1`: 627 s; for `COc1ccc(-c2noc(C3(NC(=O)c4ccc(C(F)(F)F)cc4)CCCCC3)n2)cc1`: 1260 s.
As for `COC(=O)c1cn(CC(=O)N2CCc3ccccc3C2)c2ccccc12`, the RP-LC retention time was determined as 964 s.
The figure for `Cn1cc(S(=O)(=O)N2CCC(C(=O)N3CCOCC3)CC2)cc1C(=O)N1CCCC1` is 626 s; for `CCOc1nccnc1NC1CCN(C(=O)Cc2cccs2)CC1` it is 740 s.
The same measure for `CCn1ccc2cc(S(=O)(=O)N3CCCC(C(=O)N4CCN(C)CC4)C3)ccc21` (configuration not stated): 646 s; for `Cc1ccc(CNC(=O)C2(C)Oc3cccnc3N(C)C2=O)cc1` (configuration not stated): 806 s; for `CCNC(=O)C1CCN(S(=O)(=O)c2cc(-c3noc(C)n3)cs2)CC1`: 713 s.
The figure for `O=C(NC1CCc2ccccc21)C1CCN(c2ncnc3c2oc2ccccc23)CC1` (configuration not stated) is 778 s; for `CCc1nncn1C1CCN(S(=O)(=O)c2ccc(OC)c(Cl)c2)CC1` it is 736 s; for `COCC(C)NC(=O)C(=O)Nc1ccc2c(c1)OCCO2` (configuration not stated) it is 685 s.
Compound `CN(C)CCn1c2c(c(SCC(=O)Nc3ccc(Cl)cc3)nc1=O)CCC2` came in with an RP-LC retention time of 656 s.
The figure for `Cc1oc(-c2ccc(Cl)cc2)nc1CN1CCC(C(=O)NCc2ccccn2)CC1` is 584 s.
The same measure for `CCC(=O)N1CCCN(C2=NS(=O)(=O)C(c3ccc(C)cc3)=C2C)CC1`: 742 s; for `Cc1cc(-c2nnc(-c3ccc(F)cc3)o2)c(C)n1CC(=O)NCC1CCCO1` (configuration not stated): 771 s; for `CCN1CCN(C(=O)CN2c3ccc(F)cc3-c3ccccc3S2(=O)=O)CC1`: 639 s.
The figure for `Cc1nc(Nc2ncc3c(n2)CC(c2ccc(F)cc2)CC3=O)nc2ccccc12` (configuration not stated) is 756 s; for `O=C(CCCn1c(=O)c2cccn2c2ccc(F)cc21)NCc1cccs1` it is 837 s; for `Cc1ccc(NC(=O)N2CCCC2c2cc(C)no2)c(Cl)c1` (configuration not stated) it is 880 s.
As to `Cc1ccc2c(c1)N(C(=O)N1CCC(C(=O)NCc3ccccc3)CC1)CCO2`, the RP-LC retention time was determined as 820 s.
Turning to `O=C(C1CCN(c2cnc3nccnc3c2)CC1)N1CCN(C2CCCCC2)CC1`, the RP-LC retention time came to 572 s.
`COc1ccc(-c2cn3c(CC(=O)N(Cc4ccco4)C4CCCCC4)csc3n2)cc1OC`: the RP-LC retention time was 890 s.
The figure for `Cn1c(=O)n(C)c2cc(CNCCc3ccc(F)cc3)ccc21` is 609 s; for `Cc1ccnc(NC(=O)C2CCN(S(=O)(=O)c3ccc4c(c3)sc(=O)n4C(C)C)CC2)c1` it is 794 s; for `O=C(NCc1ccc(F)cc1F)C1CCN(c2cncnc2N2CCOCC2)CC1` it is 618 s.
The figure for `Cc1noc(-c2nn(C)c3c2CN(C(=O)COc2ccccc2)CC3)n1` is 729 s; for `Clc1ccc(C2(c3ccc(-c4cn[nH]c4)cc3)CCNCC2)cc1` it is 680 s; for `CC(C)CN1C(=O)c2cccn2CC1CNC(=O)c1cccn1C` (configuration not stated) it is 733 s.
Compound `CCNC(=O)c1cc2cc(C)ccc2[nH]1` displayed an RP-LC retention time of 791 s.
The same measure for `COc1ccc(-n2c(=O)n(C)c(=O)c3cc(C(=O)Nc4ccccc4)cnc32)cc1`: 862 s; for `CN(C)c1ccc(C(=O)NCC(C)(O)c2ccco2)cc1` (configuration not stated): 665 s; for `Cc1cc2c(cc1C)N(C(=O)CCl)CC(=O)N2`: 745 s.
As to `O=S(=O)(c1ccccc1)N1CCC(c2nc(CCOCC3CC3)no2)C1` (configuration not stated), the RP-LC retention time came to 896 s.
Take `O=C(CCc1csc(NS(=O)(=O)c2ccccc2)n1)Nc1nc2ccccc2s1`: the RP-LC retention time turned out to be 730 s.
The same measure for `COc1cccc(Cn2cnc3c(-c4ccc(F)cc4)csc3c2=O)c1`: 1050 s; for `CCOC(=O)c1csc(NC(=O)Cc2ccc(S(=O)(=O)CC)cc2)n1`: 681 s; for `O=C(CCCN1CCC2(CC1)C(=O)NCN2c1ccccc1)c1ccc(F)cc1`: 725 s.
The compound `CCOC(=O)C1CCN(C(=O)Cc2c(C(=O)O)c(C)cn2CC)CC1` yielded an RP-LC retention time of 715 s.
`O=C(c1ccncc1)N1CCC(n2c(-c3ccco3)nc3cccnc32)C1` (configuration not stated) gave an RP-LC retention time of 689 s.
The same measure for `COc1ccc(-c2nc(C3CC(=O)N(c4ccc(F)cc4)C3)no2)cc1` (configuration not stated): 961 s; for `Cc1nc(-c2nnn(-c3ccccc3)c2C)sc1C(=O)NCCc1cccs1`: 936 s.
The same measure for `CCCCNC(=O)Cn1nc2c3cc(-c4ccc(C)c(C)c4)nn3ccn2c1=O`: 924 s.
`Cc1ccc(N2CCN(c3nc(C(=O)O)cs3)CC2)cc1` had an RP-LC retention time of 770 s.
The same measure for `CCOC(=O)c1nc(N2CCN(c3cc(Cl)ccc3C)CC2)c2ccccc2n1`: 1140 s; for `COCCNC(=O)Cn1cccc1-c1nc(-c2ccc(Cl)cc2)cs1`: 988 s.
The same measure for `O=C(Nc1cccc(-c2ccc(N3CCOCC3)nn2)c1)Nc1cc(F)ccc1F`: 738 s; for `CCc1nc2cc(-c3noc(-c4ccc(C)c(NC(C)=O)c4)n3)ccc2o1`: 895 s; for `CCOC(=O)c1c(C)c(CCC(=O)NCCN2CCCCCC2)n(C)c1C`: 645 s.
The figure for `O=C(NCc1ccccc1Cl)c1coc(NC(=O)c2cnccn2)n1` is 643 s.
`COc1ccc2[nH]c3c(c2c1)CCN1C(=O)N(CCc2ccc(OC)c(OC)c2)C(=O)C31C` (configuration not stated) came in with an RP-LC retention time of 888 s.
The compound `Cc1nc(-c2ccccc2)cc2nn(CC(=O)Nc3ccccc3Cl)c(=O)n12` gave an RP-LC retention time of 966 s.
Consider `CCCn1nnc2cc(-c3noc(CN4C(=O)COc5ccccc54)n3)ccc21`, for which the RP-LC retention time is 926 s.
The figure for `Fc1ccc(C(OCCN2CCN(CCCc3ccccc3)CC2)c2ccc(F)cc2)cc1` is 957 s; for `Cc1ccc2nc(Nc3nc(C)cc(C(F)(F)F)n3)nc(C)c2c1` it is 713 s; for `Cc1nn(-c2ccc(F)cc2)c2nc(N3CCCC(C(=O)NC4CCCCCC4)C3)sc12` (configuration not stated) it is 1240 s.
The figure for `CCc1nc2cc(-c3noc(-c4ccc(F)c(F)c4)n3)ccc2o1` is 1200 s.
Turning to `CCc1noc(-c2cnc3nc(C)ccc3c2Nc2ccccc2C)n1`, the RP-LC retention time worked out at 818 s.
The figure for `CC(C)(C)c1ccc(C(=O)N(Cc2ccc(Br)o2)C2CCS(=O)(=O)C2)cc1` (configuration not stated) is 1110 s; for `O=C(Nc1ccc2c(c1)OCO2)N1CCN(Cc2ccccc2)c2ncccc21` it is 732 s.
Consider `CCS(=O)(=O)N1CCc2nc(-c3ccc(F)cc3)ncc2C1`, for which the RP-LC retention time was 847 s.
The same measure for `O=[N+]([O-])c1ccc(-c2nc(N3CCCCCC3)c3ccccc3n2)cc1`: 820 s.
Compound `COc1cccc(CNC(=O)CN2CCc3[nH]c4c(C)c(Cl)ccc4c(=O)c3C2)c1` returned an RP-LC retention time of 636 s.
The same measure for `Cc1ccc(-c2noc(-c3ccc(N4CCN(C5CCCCC5)CC4)nc3)n2)cc1`: 848 s; for `COc1c(C(=O)NC(C)C)sc2cccc(F)c12`: 968 s; for `CCC(=O)N1CCc2cc(C(=O)NC3CC3)ccc21`: 650 s.
The figure for `Nc1cccc(-c2nc3ccccc3[nH]2)c1` is 532 s.
